Laboratory results taken from patent US4443478A, “Prostaglandin analogues” (Ono Pharmaceutical Co., Ltd., priority 1981, dated 1984).
Values after ≈ are worked out from the molar mass of the structure shown.

Tests used:
uterine contraction = experiment: stimulation of uterine contraction in the pregnant female rat; assay type: in vivo; settings: 20th day of gestation, intravenous
male mice = experiment: acute toxicity by oral administration; assay type: in vivo, mouse
Method: On the other hand, the compounds of the present invention were confirmed that their toxicities (i.e. LD50) were more than […] animal body weight by oral administration. Therefore, the compounds of the present invention may be considered to be sufficiently safe and suitable for medical use.

blood pressure = experiment: fall in blood pressure in the allobarbital-anaesthetized dog; assay type: in vivo; settings: intravenous
[1] = test system: carbon tetrachloride-induced liver damage; experiment: carbon tetrachloride-induced liver damage in rats; assay type: in vivo; settings: rat, in comparison with controls
stress ulceration = experiment: inhibition of stress ulceration in rats; assay type: in vivo; settings: rat, oral
Source text: For example, in standard laboratory tests, (i) in stress ulceration of rats [produced according to the methods of Takagi and Okabe, Jap.

[2] = test system: α-naphthylisothiocyanate-induced liver damage; experiment: α-naphthylisothiocyanate-induced liver damage in rats; assay type: in vivo; settings: rat, oral, 100 μg/kg, in comparison with controls
[3] = test system: adenosine diphosphate-induced blood platelet aggregation; experiment: inhibition of adenosine diphosphate-induced blood platelet aggregation in platelet-rich plasma; assay type: cell-based; settings: Homo sapiens; platelet-rich plasma of humans; read-out: concentration producing 50% inhibition of adenosine diphosphate-induced blood platelet aggregation
[4] = test system: D(+)-galactoseamine-induced liver damage; experiment: D(+)-galactoseamine-induced liver damage in rats; assay type: in vivo; settings: rat, oral, 100 μg/kg, in comparison with control

Compound	stimulation of uterine contraction (uterine contraction; 20 μg/kg)	deaths in acute toxicity test (male mice; 5 mg/kg)	deaths in acute toxicity test (male mice; 10 mg/kg)	duration of fall in blood pressure (blood pressure; 0.5 μg/kg) [min]	fall in blood pressure (blood pressure; 0.5 μg/kg) [mm Hg]	inhibition of plasma GOT (glutamic oxalacetic transaminase) ([1]; oral, 50 μg/kg) [%]	inhibition of plasma GPT (glutamic pyruvic transaminase) ([1]; oral, 50 μg/kg) [%]	inhibition of plasma GOT [2] [%]	inhibition of plasma GPT [2] [%]	inhibition of plasma bilirubin [2] [%]	IC50 [3] [µg/mL]	also measured
CCCC[C@H](C)C[C@H](O)/C=C/[C@H]1[C@H](O)CC(=O)[C@@H]1CC(=O)CCCCC(=O)CO (relative stereo) [1-Hydroxymethyl-11α,15(S)-dihydroxy-17(S),20-dimethylprost-trans-13-ene-1,6,9-trione]	stimulated uterine contraction	no deaths in 10 cases	no deaths in 10 cases	29	15	58.0	59.7	49.0	53.7	21.2		duration of fall in blood pressure (blood pressure; 0.3 μg/kg): 14 min; fall in blood pressure (blood pressure; 0.3 μg/kg): 6 mm Hg; inhibition of plasma GOT (glutamic oxalacetic transaminase) ([1]; subcutaneous, 20 μg/kg): 61.4%; inhibition of plasma GPT (glutamic pyruvic transaminase) ([1]; subcutaneous, 20 μg/kg): 48.7%; inhibition of stress ulceration (stress ulceration; 20 μg/kg): 56.8%; inhibition of stress ulceration (stress ulceration; 50 μg/kg): 91.8%
CCCC1CC([C@H](O)/C=C/[C@H]2[C@H](O)CC(=O)[C@@H]2CC(=O)CCCCC(=O)CO)C1 (relative stereo) [1-hydroxymethyl-11α,15(S)-dihydroxy-15-(3-propylcyclobutyl)-16,17,18,19,20-pentanorprost-trans-13-ene-1,6,9-trione]								53.1	61.3	30.3		
CCCCC1CCC([C@H](O)/C=C/[C@H]2[C@H](O)CC(=O)[C@@H]2CC(=O)CCCCC(=O)CO)C1 (stereo partly drawn) [1-Hydroxymethyl-11α,15(S)-dihydroxy-15-(3-butylcyclopentyl)-16,17,18,19,20-pentanorprost-trans-13-ene-1,6,9-trione]	stimulated uterine contraction		2 deaths in 5 cases	17	20	54.9	48.6	30.3	41.7	15.2	0.0036 to 0.072 (≈ 0.00825 to 0.165 µM)	stimulation of uterine contraction (uterine contraction; 50 μg/kg): stimulated uterine contraction; duration of fall in blood pressure (blood pressure; 1.0 μg/kg): 40 min; fall in blood pressure (blood pressure; 1.0 μg/kg): 47 mm Hg; inhibition of plasma GOT [4]: 57.0%; inhibition of plasma GPT [4]: 54.0%; inhibition of plasma bilirubin [4]: 63.0%
CCCC1CCC([C@H](O)/C=C/[C@H]2[C@H](O)CC(=O)[C@@H]2CC(=O)CCCCC(=O)CO)C1 (stereo partly drawn) [1-Hydroxymethyl-11α,15(S)-dihydroxy-15-(3-propylcyclopentyl)-16,17,18,19,20-pentanorprost-trans-13-ene-1,6,9-trione]		one death in 5 cases				46.7	45.1				0.0018 to 0.018 (≈ 0.00426 to 0.0426 µM)	duration of fall in blood pressure (blood pressure; 0.1 μg/kg): 9 min; fall in blood pressure (blood pressure; 0.1 μg/kg): 20 mm Hg; duration of fall in blood pressure (blood pressure; 0.2 μg/kg): 23 min; fall in blood pressure (blood pressure; 0.2 μg/kg): 35 mm Hg
